Results from patent US20040116420A1 (priority 2001, published 2004).
pIC50: −log10 of the molar value.

Experiments:
[1] = biological target: T1, HSV-1 protease (Human herpesvirus 1, UniProt P10210); assay: Enzymatic assay for HSV-1 protease (assembly) inhibitor, fluorescence polarization; type: biochemical; settings: read-out: HSV-1 Enzyme inhibition IC50
T1 construct: 6xHis (N); made in house; host or cells: baculovirus expression system
Procedure, shortened: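 His6-tagged HSV-1 UL26 protease, baculovirus-expressed, preincubated 30 min at RT with compound in 1 M citrate/phosphate buffer pH 7.4 with 20% glycerol and 2 mM TCEP. A biotin-HTYLQA*SERFRIK-DTAF substrate was then cleaved for 60 min at RT, stopped with avidin, and read by fluorescence polarization versus no-inhibitor control.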

[2] = system: Vero cells; assay: Cytotoxicity, Vero cells, Alamar Blue; type: cell-based; settings: 25 μM, 20 hours
Procedure, shortened: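 Overnight-seeded Vero cells were exposed to 25 μM compound in 2% FBS-DMEM for 20 h at 37 °C, 5% CO2. Alamar Blue was then added for about 6 h. The absorbance ratio relative to compound-free control gave the living-cell ratio.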

[3] = system: HSV-1; assay: Antiviral activity, HSV-1 in Vero cells, plaque method; type: cell-based; settings: Human alphaherpesvirus 1, 20 hours, 90% inhibition of plaque formation
Procedure, shortened: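 HSV-1 (50,000 pfu in 2% FBS-DMEM) was added to Vero cells and removed, then the compound was applied in 2% FBS-DMEM for 20 h at 37° C, 5% CO2. After a freeze-thaw, virus yield in the medium was titred by plaque assay. EC90 is the concentration giving 90% plaque reduction versus the compound-free control.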

T1 sequence (P10210 1-247): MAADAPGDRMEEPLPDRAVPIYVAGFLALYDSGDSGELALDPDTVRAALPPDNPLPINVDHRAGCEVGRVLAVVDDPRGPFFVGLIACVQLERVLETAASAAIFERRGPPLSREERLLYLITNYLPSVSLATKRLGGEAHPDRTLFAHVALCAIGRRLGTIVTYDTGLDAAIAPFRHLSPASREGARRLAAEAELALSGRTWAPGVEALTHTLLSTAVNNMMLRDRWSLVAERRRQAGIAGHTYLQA

How did the pIC50 [1] turn out when `Cc1c(NC(=O)c2ccccc2)ccc2nc(NC(C)(C)C(=O)N(C)CCc3ccccn3)oc(=O)c12` [Compound No.138, N-(5-Methyl-2-{1-methyl-1-[methyl-(2-pyridin-2-yl-ethyl)-carbamoyl]-ethylamino}-4-oxo-4H-benzo[d][1,3]oxazin-6-yl)-benzamide] was run?
Its pIC50 is 5.55.

What about the “Cell viability (% of control)” value [2] of the same compound?
The value was 84.4%.

And the EC90 [3]?
The EC90 was over 12.5 µM.

How did the pIC50 [1] turn out when `Cc1c(NC(=O)c2ccco2)ccc2nc(NC(C)(C)C(=O)N(C)CCc3ccccn3)oc(=O)c12` [Compound No.139, Furan-2-carboxylic acid (5-methyl-2-{1-methyl-1-[methyl-(2-pyridin-2-yl-ethyl)-carbamoyl]-ethylamino}-4-oxo-4H-benzo[d][1,3]oxazin-6-yl)-amide] was run?
Its pIC50 is 5.85.

And the “Cell viability (% of control)” value [2]?
Its value is 90.7%.

And the EC90 [3]?
The EC90 was over 12.5 µM.

What does the source list for `Cc1c(NC(=O)c2ccccc2[N+](=O)[O-])ccc2nc(NC(C)(C)C(=O)N(C)CCc3ccccn3)oc(=O)c12` [Compound No.140, N-(5-Methyl-2-{1-methyl-1-[methyl-(2-pyridin-2-yl-ethyl)-carbamoyl]-ethylamino}-4-oxo-4H-benzo[d][1,3]oxazin-6-yl)-2-nitro-benzamide]?
pIC50 [1]: 5.38; Cell viability (% of control) [2]: 96.8%; EC90 [3]: > 12.5 µM

What does the source list for `Cc1c(NC(=O)c2cccc([N+](=O)[O-])c2)ccc2nc(NC(C)(C)C(=O)N(C)CCc3ccccn3)oc(=O)c12` [Compound No.141, N-(5-Methyl-2-{1-methyl-1-[methyl-(2-pyridin-2-yl-ethyl)-carbamoyl]-ethylamino}-4-oxo-4H-benzo[d][1,3]oxazin-6-yl)-3-nitro-benzamide]?
pIC50 [1]: 5.10; Cell viability (% of control) [2]: 80.4%; EC90 [3]: > 12.5 µM

With `Cc1c(NC(=O)c2ccc([N+](=O)[O-])cc2)ccc2nc(NC(C)(C)C(=O)N(C)CCc3ccccn3)oc(=O)c12` [Compound No.142, N-(5-Methyl-2-{1-methyl-1-[methyl-(2-pyridin-2-yl-ethyl)-carbamoyl]-ethylamino}-4-oxo-4H-benzo[d][1,3]oxazin-6-yl)-4-nitro-benzamide] as the compound, how does the pIC50 [1] read?
The pIC50 was 5.89.

What about the “Cell viability (% of control)” value [2] of the same compound?
Its value is 61.0%.

What about the EC90 [3] of the same compound?
Its EC90 is 10.4 µM.

What does the source list for `Cc1c(NC(=O)c2cccc(C#N)c2)ccc2nc(NC(C)(C)C(=O)N(C)CCc3ccccn3)oc(=O)c12` [Compound No.143, 3-Cyano-N-(5-methyl-2-{1-methyl-1-[methyl-(2-pyridin-2-yl-ethyl)-carbamoyl]-ethylamino}-4-oxo-4H-benzo[d][1,3]oxazin-6-yl)-benzamide]?
pIC50 [1]: 5.43; Cell viability (% of control) [2]: 86.9%; EC90 [3]: > 12.5 µM

With `Cc1c(NC(=O)c2ccccc2C(F)(F)F)ccc2nc(NC(C)(C)C(=O)N(C)CCc3ccccn3)oc(=O)c12` [Compound No.144, N-(5-Methyl-2-{1-methyl-1-[methyl-(2-pyridin-2-yl-ethyl)-carbamoyl]-ethylamino}-4-oxo-4H-benzo[d][1,3]oxazin-6-yl)-2-trifluoromethyl-benzamide] as the compound, how does the pIC50 [1] read?
Its pIC50 is 5.64.

What about the “Cell viability (% of control)” value [2] of the same compound?
The value was 76.1%.

And the EC90 [3]?
The EC90 was over 12.5 µM.

How did the pIC50 [1] turn out when `Cc1c(NC(=O)c2cccc(C(F)(F)F)c2)ccc2nc(NC(C)(C)C(=O)N(C)CCc3ccccn3)oc(=O)c12` [Compound No.145, N-(5-Methyl-2-{1-methyl-1-[methyl-(2-pyridin-2-yl-ethyl)-carbamoyl]-ethylamino}-4-oxo-4H-benzo[d][1,3]oxazin-6-yl)-3-trifluoromethyl-benzamide] was run?
Its pIC50 is 5.89.

What about the “Cell viability (% of control)” value [2] of the same compound?
The value was 19.7%.

And the EC90 [3]?
The EC90 was 6 µM.

`Cc1c(NC(=O)c2ccc(C(F)(F)F)cc2)ccc2nc(NC(C)(C)C(=O)N(C)CCc3ccccn3)oc(=O)c12` [Compound No.146, N-(5-Methyl-2-{1-methyl-1-[methyl-(2-pyridin-2-yl-ethyl)-carbamoyl]-ethylamino}-4-oxo-4H-benzo[d][1,3]oxazin-6-yl)-4-trifluoromethyl-benzamide] was tested. Which pIC50 [1] did it give?
Its pIC50 is 5.92.

What about the “Cell viability (% of control)” value [2] of the same compound?
Its value is 18.0%.

And the EC90 [3]?
The EC90 was 5.6 µM.

How did the pIC50 [1] turn out when `Cc1c(NC(=O)c2ccccc2F)ccc2nc(NC(C)(C)C(=O)N(C)CCc3ccccn3)oc(=O)c12` [Compound No.147, 2-Fluoro-N-(5-methyl-2-{1-methyl-1-[methyl-(2-pyridin-2-yl-ethyl)-carbamoyl]-ethylamino}-4-oxo-4H-benzo[d][1,3]oxazin-6-yl)-benzamide] was run?
Its pIC50 is 5.80.

What about the “Cell viability (% of control)” value [2] of the same compound?
Its value is 70.2%.

And the EC90 [3]?
Its EC90 is 10.2 µM.

With `Cc1c(NC(=O)c2cccc(F)c2)ccc2nc(NC(C)(C)C(=O)N(C)CCc3ccccn3)oc(=O)c12` [Compound No.148, 3-Fluoro-N-(5-methyl-2-{1-methyl-1-[methyl-(2-pyridin-2-yl-ethyl)-carbamoyl]-ethylamino}-4-oxo-4H-benzo[d][1,3]oxazin-6-yl)-benzamide] as the compound, how does the pIC50 [1] read?
Its pIC50 is 5.82.

And the “Cell viability (% of control)” value [2]?
The value was 54.6%.

What about the EC90 [3] of the same compound?
Its EC90 is 10.3 µM.

Which results are given for `Cc1c(NC(=O)c2ccc(F)cc2)ccc2nc(NC(C)(C)C(=O)N(C)CCc3ccccn3)oc(=O)c12` [Compound No.149, 4-Fluoro-N-(5-methyl-2-{1-methyl-1-[methyl-(2-pyridin-2-yl-ethyl)-carbamoyl]-ethylamino}-4-oxo-4H-benzo[d][1,3]oxazin-6-yl)-benzamide]?
pIC50 [1]: 5.82; Cell viability (% of control) [2]: 65.4%; EC90 [3]: 10.6 µM

With `COC(=O)c1ccc(C(=O)Nc2ccc3nc(NC(C)(C)C(=O)N(C)CCc4ccccn4)oc(=O)c3c2C)cc1` [Compound No.150, N-(5-Methyl-2-{1-methyl-1-[methyl-(2-pyridin-2-yl-ethyl)-carbamoyl]-ethylamino}-4-oxo-4H-benzo[d][1,3]oxazin-6-yl)-tetraphthalic acid methyl ester] as the compound, how does the pIC50 [1] read?
The pIC50 was 5.85.

And the “Cell viability (% of control)” value [2]?
Its value is 81.5%.

And the EC90 [3]?
The EC90 was 6.1 µM.

How did the pIC50 [1] turn out when `Cc1c(NC(=O)c2cccc(Cl)c2)ccc2nc(NC(C)(C)C(=O)N(C)CCc3ccccn3)oc(=O)c12` [Compound No.152, 3-Chloro-N-(5-methyl-2-{1-methyl-1-[methyl-(2-pyridin-2-yl-ethyl)-carbamoyl]-ethylamino}-4-oxo-4H-benzo[d][1,3]oxazin-6-yl)-benzamide] was run?
The pIC50 was 5.74.

And the “Cell viability (% of control)” value [2]?
The value was 30.9%.

And the EC90 [3]?
The EC90 was 6.3 µM.

Which results are given for `Cc1c(NC(=O)c2ccc(Cl)cc2)ccc2nc(NC(C)(C)C(=O)N(C)CCc3ccccn3)oc(=O)c12` [Compound No.153, 4-Chloro-N-(5-methyl-2-{1-methyl-1-[methyl-(2-pyridin-2-yl-ethyl)-carbamoyl]-ethylamino}-4-oxo-4H-benzo[d][1,3]oxazin-6-yl)-benzamide]?
pIC50 [1]: 5.59; Cell viability (% of control) [2]: 48.6%; EC90 [3]: 6.2 µM

`Cc1c(NC(=O)c2ccc(Br)cc2)ccc2nc(NC(C)(C)C(=O)N(C)CCc3ccccn3)oc(=O)c12` [Compound No.154, 4-Bromo-N-(5-methyl-2-{1-methyl-1-[methyl-(2-pyridin-2-yl-ethyl)-carbamoyl]-ethylamino}-4-oxo-4H-benzo[d][1,3]oxazin-6-yl)-benzamide] was tested. Which pIC50 [1] did it give?
Its pIC50 is 5.62.

What about the “Cell viability (% of control)” value [2] of the same compound?
Its value is 28.3%.

And the EC90 [3]?
The EC90 was 5.4 µM.

How did the pIC50 [1] turn out when `Cc1c(NC(=O)c2ccccc2I)ccc2nc(NC(C)(C)C(=O)N(C)CCc3ccccn3)oc(=O)c12` [Compound No.155, 2-Iodo-N-(5-methyl-2-{1-methyl-1-[methyl-(2-pyridin-2-yl-ethyl)-carbamoyl]-ethylamino}-4-oxo-4H-benzo[d][1,3]oxazin-6-yl)-benzamide] was run?
Its pIC50 is 5.82.

What about the “Cell viability (% of control)” value [2] of the same compound?
The value was 69.1%.

And the EC90 [3]?
Its EC90 is over 12.5 µM.
